Reference: publication PMC3641841 (2010)

System: Oxytricha Nova quadruplex (GGGGTTTTGGGG)2 (DNA, G4) GGGGTTTTGGGG
Assay: ITC
Conditions: 10 mM sodium cacodylate, 0.5 mM EDTA, pH 7.0, 20 °C

Row | SMILES | Ka (K+ 90 mM) | Ka (Na+ 100 mM)
1 | NC[C@@H]1O[C@H](O[C@H]2[C@@H](O)[C@H](O[C@@H]3[C@@H](O)[C@H](N)C[C@H](N)[C@H]3O[C@H]3O[C@H](CN)[C@@H](O)[C@H](O)[C@H]3N)O[C@@H]2CO)[C@H](N)[C@@H](O)[C@@H]1O | 1.15±0.08 × 10^5 M^−1 | 1.03±0.50 × 10^5 M^−1
2 | NC[C@@H]1O[C@H](O[C@H]2[C@@H](O)[C@H](O[C@@H]3[C@@H](O)[C@H](N)C[C@H](N)[C@H]3O[C@H]3O[C@H](CO)[C@@H](O)[C@H](O)[C@H]3N)O[C@@H]2CO)[C@H](N)[C@@H](O)[C@@H]1O | 0.45±0.01 × 10^5 M^−1 | –
